Experimental data reported in paper PMC3235747, “Bioassay-Guided Isolation of Cytotoxic Cycloartane Triterpenoid Glycosides from the Traditionally Used Medicinal Plant Leea indica” (Evidence-based Complementary and Alternative Medicine : eCAM, 2011).
Converted amounts (≈) assume the structure as drawn. “And” between values parts separate entries of the source, which are not always exact repeats. Equal values may be shown once. Read-outs that look alike come from different tables or passages of the source.

Key:
Format in all cases: cell-based, human
Ca Ski cells [1] = assay: MTT recovery assay (72 h exposure then 72 h recovery)
Description: In order to determine whether the cytotoxicity is cytostatic or cytocidal, a recovery assay was conducted whereby after the 72 h incubation (exposure period), the medium containing the compound was removed, washed with medium, and replaced with medium alone for a recovery period of 72 h followed by addition of MTT and measurement as described earlier. A sample is showing cytostatic effect when the IC50 in the recovery assay was higher than that of the exposure assay. Whereas for cytocidal effect, the IC50 obtained in the recovery assay is similar to that shown by the exposure assay.

Ca Ski cells [2] = assay: Cell cycle analysis by PI staining and flow cytometry; conditions: 60 μM
Description: The cell cycle distribution was assessed using propidium iodide (PI) staining. Ca Ski cells were seeded in 60 mm culture dishes (1 × 10^6 cells) and left 24 h for attachment. The cells were then treated without or with 60 μM MAA for 12–72 h. After the designated treatment period, both adherent and floating cells were harvested and washed twice with PBS. Cell pellets were resuspended in 100 μL of PBS and fixed with absolute ethanol and stored at −20°C for 24 h. Fixed cells were washed twice with PBS, and the cell pellets were incubated in a buffer containing 50 μg/mL PI, 0.1% sodium citrate, 0.1% Triton-X-100, and 100 μg/mL RNase A for 45 min in the dark at room temperature. The percentage of cells in the sub-G1, G1, S, and G2/M-phases of the cell cycle was then analyzed using a FACS Calibur flow cytometer (Beckton Dickinson). Data were acquired and analyzed using Cell Quest software (Becton Dickinson).

Ca Ski cells [3] = assay: Trypan blue exclusion (TBE) assay, viable cell count; conditions: 60 μM
Description: Ca Ski cells were cultured at a density of 1 × 10^6 cells/mL in 60 mm culture dishes. After 24 h of attachment, the cells were treated without or with 60 μM of MAA for different time periods. After 6–72 h, the cells were harvested, washed with medium, and the cell pellets were resuspended in medium. After incubation in 0.4% trypan blue for 5 min, viable cells were counted using a hemocytometer. At the indicated time point straight before the cells were harvested, the cells were visualized under an inverted phase-contrast microscope (Motic) to observe the cell morphological changes upon treatment, and photographs were taken.

MRC 5 normal cells = assay: MTT assay, 72 h exposure, MRC 5 normal cells; conditions: for IC50: Homo sapiens, MRC5, 72 h; for fold higher IC50 against MRC 5 compared to CPT: MRC 5, relative to camptothecin
Description: (§1) The human cervical epidermoid carcinoma cell line (Ca Ski, ATCC number CRL-1550) and human fibroblast cell line (MRC 5, ATCC number CCL-171) were purchased from the American Type Culture Collection (ATCC, USA). Ca Ski cells were maintained in RPMI 1640 Medium (Sigma) and MRC 5 cells in EMEM (Eagle Minimum Essential Medium) (Sigma). The media were supplemented with 10% (v/v) heat-inactivated fetal bovine serum (PAA Lab, Austria), 100 μg/mL streptomycin and 100 unit/mL penicillin (PAA Lab, Austria), and 50 μg/mL amphotericin B (PAA Lab, Austria). The media were filter-sterilized using a 0.22 μm filter membrane (Minisart, Sartorius stedim). The cells were cultured in 5% CO2 incubator at 37°C in a humidified atmosphere. MTT assay was modified from Mossmann and used to evaluate the cytotoxic effects of each fraction and compounds. MTT assay is widely used to assess the viability and/or the metabolic state of the cells based on mitochondrial respiratory activity. A total of 5 × 10^3 cells were seeded into each well of 96-well plates and allowed to adhere for 24 h. After 24 h, the cells were treated with the fractions or compounds in the final concentrations ranging from 3.125 to 100 μg/mL. Each concentration was performed in triplicate well. Control cells were treated with vehicle DMSO to get the final concentration of 0.5% v/v. The cells were then incubated for 72 h. After 72 h exposure period, MTT (5 mg/mL) was added and further incubated for 4 h at 37°C. The medium was then aspirated and the crystals formed were dissolved in 150 μL DMSO. The absorbance was measured at 570 nm against the reference wavelength of 650 nm. The percentage of viability was calculated based on the formula: Viability (%) = (absorbance of treated cells/absorbance of control cells) × 100%. The IC50 (concentration that reduces cell viability to 50%) was derived from the dose-response curves. MRC 5 cell line was used as a normal cell model for the calculation of selectivity index (SI). SI value was calculated by dividing the IC50 value of the MRC 5 cell line with the IC50 value of Ca Ski cell line.

[4] = tested on: proliferating cell nuclear antigen (PCNA) expression in Ca Ski cells; assay: Q-PCR analysis of PCNA expression; conditions: 20–100 μM for 24 h; 60 μM for 0–24 h; relative to untreated control, normalized with GAPDH
Description: A total of 1 × 10^6 Ca Ski cells were seeded into 60 mm culture dishes and incubated for 24 h for attachment. Cells were then treated without or with 20-100 μM of MAA for 24 h. For time-course study, cells were treated with 60 μM MAA for 0, 3, 6, 12, and 24 h. After specific treatment period, cells were harvested and total RNA was isolated using the RNAqueous-4PCR kit (Applied Biosystem) according to the manufacturer's directions. The RNA concentration was determined using spectrophotometry. The gene expression of PCNA was assessed by one-step SYBR Green relative real-time PCR (Rotor-Gene System, Qiagen) and normalized to GAPDH reference control amplifications. The primer sequences for PCNA and GAPDH were forward [NT], reverse [NT] and forward [NT], reverse [NT], respectively. The PCR amplification reactions were carried out in a total volume of 25 μL for 30 cycles of 45 seconds at 95°C, 45 seconds at 56°C, and 120 seconds at 72°C. The mean fluorescence threshold value (CT) of each sample was obtained according to the manufacturer's guidelines and used to determine ΔCT values where by ΔCT = CT target gene (PCNA) - CT reference gene (GAPDH).

[5] = MTT assay, 72 h exposure, Ca Ski cells; conditions: human
Description: as §1, with “curves.” for “curves. MRC 5 cell line was used as a normal cell model for the calculation of selectivity index (SI). SI value was calculated by dividing the IC50 value of the MRC 5 cell line with the IC50 value of Ca Ski cell line.”

[6] = tested on: Ca Ski cervical cancer cells; assay: MTT assay, 72 h exposure, Ca Ski cells; conditions: for decrease in cell viability: Ca Ski cells, 3.125–100 μg/mL
Description: as §1, with “curves.” for “curves. MRC 5 cell line was used as a normal cell model for the calculation of selectivity index (SI). SI value was calculated by dividing the IC50 value of the MRC 5 cell line with the IC50 value of Ca Ski cell line.”

[7] = Homo sapiens, Ca-Ski, 72 h, MTT, 72 h exposure

| Structure (SMILES) | IC50 in the recovery assay compared with the exposure assay (Ca Ski cells [1]) | proportion of S-phase and G2/M-phase cells versus untreated cells (Ca Ski cells [2]; 12 and 24 h) | increase of hypodiploid (sub-G1) cells (Ca Ski cells [2]; after 72 h) | effect on cell proliferation (viable cell count) (Ca Ski cells [3]; 6 h) | effect on cell proliferation (viable cell count) (Ca Ski cells [3]; 12 h and 24 h) | IC50 (MRC 5 normal cells; MTT, 72 h exposure) [µg/mL] | fold higher IC50 against MRC 5 compared to CPT (MRC 5 normal cells) | expression of PCNA [4] | selectivity ratio at 72 h ([5]; Ca Ski cervical carcinoma cells vs MRC 5 fibroblast cells, Ca Ski vs MRC 5, read-out: selectivity index (IC50 MRC 5 / IC50 Ca Ski), times more cytotoxic to Ca Ski cells compared to MRC5) | decrease in cell viability ([6]; 72 h) | IC50 [6, 7] | IC50 on MRC 5 (MRC 5 normal cells; MTT, 72 h exposure) [µg/mL] | selectivity ratio at 72 h [5] | IC50 ([6]; MTT, 72 h exposure) [µM] | IC50 for Ca Ski cells ([6]; MTT, 72 h exposure) [µg/mL] |
| --- | --- | --- | --- | --- | --- | --- | --- | --- | --- | --- | --- | --- | --- | --- | --- |
| CC(C)=CCCC(C)C1CCC2(C)C3CCC4C(C)(C(=O)O)C(OC5OCC(O)C(O)C5O)CC(O)C45CC35CCC12C [MAA, 1α, 3β-dihydroxy-cycloart-24-ene-28-oic acid 3-O-[α-L-arabinopyranoside]] | almost the same to the exposure assay | significantly higher | about 20 fold | modestly inhibited the cell proliferation | prominent antiproliferative effect | 94.32 ± 0.75 (≈ 156 µM) | approximately 20 fold | significantly decreased | ~8 | 20–95% | 19.2 µM and 11.6 µg/mL | – | – | – | – |
| CC(C)=CCCC(C)C1CCC2(C)C3CCC4C(C)(C(=O)O)C(OC5OCC(O)C(O)C5O)CC(O)C45CC35CCC12C [MAX, 1α, 3β-dihydroxy-cycloart-24-ene-28-oic acid 3-O-[β-D-xylopyranoside]] | – | – | – | – | – | – | ~17 fold | – | – | 6–90% | – | 79.25 ± 0.66 (≈ 131 µM) | ~4 | 33.3 | 20.13 ± 0.21 |
| CC[C@@]1(O)C(=O)OCc2c1cc1n(c2=O)Cc2cc3ccccc3nc2-1 [camptothecin, reference compound] | – | – | – | – | – | 4.74 ± 0.33 (≈ 13.6 µM) | – | – | – | – | 2.51 ± 0.33 µg/mL | – | – | – | – |
